One block for each molecule: values may come before it.
What was measured:
[1] = target: T1, human adenosine A3 receptor (Homo sapiens (Human), UniProt P0DMS8); experiment: Adenosine receptor binding assay ([125I]-AB-MECA competition); conditions: inhibition of 0.15 nM [125I]-AB-MECA binding, membranes of cells expressing human A3 receptor; read-out: hA3 Ki: Ki
Excerpt: Example 30: Adenosine Receptor Binding Assay
Materials and Reference Compounds: [^125I]-AB-MECA and [^3H]CCPA are both obtained from Amersham Biosciences (Little Chalfont, UK). IB-MECA are obtained from Tocris (Bristol, UK) and N6-cyclopentyl adenosine (CPA) is obtained from Sigma-Alrich (Poole, UK). Cell culture media, G418 and hygromycin are obtained from Invitrogen (Paisley, UK). Fetal calf serum is obtained from Perbio Science (Cheshire, UK). All other reagents are obtained from Fisher Chemicals (Loughborough, UK).
The method followed is that of Yates L, Clark J H, Martin T J, James S, Broadley K J, Kidd E J. Radioligand binding and functional responses of ligands for human recombinant adenosine A3 receptors. Auton Autacoid Pharmacol. 2006; 26(2):191-200. Cells stably transfected with the human adenosine A3 or A1 receptor are grown in Dulbecco's modified Eagles medium with nutrient mixture F12 containing NaHCO3 and Glutamax. Media is supplemented with 10% fetal calf serum, geneticin (G418; 0.67 mg/mL), hygromycin (500 μg/mL) and adenosine deaminase (1 U/mL). Cells are maintained at 37° C. with 5% CO2 in air. Cells are harvested and homogenized in ice-cold Tris buffer [50 mM Tris, 150 mM NaCl, 1 mM ethylenediaminetetraacetic acid (EDTA), pH 7.4] supplemented with the peptidase inhibitors, 4-(2-aminoethyl)benzenesulfonylfluoride (1 mM) and bacitracin (0.1 mg/mL), using a Polytron homogenizer (3×10 s bursts). The homogenate was spun for 10 min (4° C.) at 500 g. The supernatant is retained and the pellet is re-suspended in the buffer, homogenized and spun as above. The combined supernatants are centrifuged for 15 min (4° C.) at 48,000 g. The resultant pellet is re-suspended in the buffer and centrifuged for a second time at 48,000 g. The membrane pellet is then suspended in Tris buffer containing no peptidase inhibitors or adenosine deaminase and stored at −80° C. at a protein concentration of 1 mg/mL.
Binding Assays: Radioligand-binding assays were performed using the adenosine A3 receptor agonist [^125I]-AB-MECA and the A1 receptor agonist [^3H]CCPA. Binding assays were conducted in a total volume of 100 μL containing a 50 mM Tris, pH 7.4 buffer with or without 10 mM MgCl2, 20 μg membranes and either 0.15 nM [^125I]-AB-MECA (for the A3 receptor) or 1 nM [^3H]CCPA (for the A1 receptor). Assays were conducted at room temperature for 60 min (A1 receptor) or 120 min (A3 receptor) and terminated by the addition of 2 ml of ice-cold wash buffer (50 mM Tris, pH 7.4 with or without 10 mM MgCl2) and rapid filtration over 0.03% polyethylenimine-treated Whatman GF/C filters using a Brandel cell harvester (Semat International Ltd., St Albans, UK). Filters were then washed three times with 2 ml of ice-cold buffer. The filter-bound radioactivity were counted using a Compugamma counter (LKB Wallac, Turku, Finland). Competition experiments were performed to investigate the ability of reference compounds and embodiments of the invention to inhibit [^125I]-AB-MECA binding. Non-specific binding were determined using the respective compound at its highest concentration.
Data Analysis: The Kd and Bmax values for binding data were calculated based upon the molar amounts of bound and free [^125I]-AB-MECA. […] IC50 and Ki values and Hill slopes for inhibition of the radioligand binding by the compounds of the invention were calculated from the ligand competition curves using the Excel spreadsheet and the Kd value calculated for either [^125I]-AB-MECA or [^3H]CCPA. The results were expressed as a percent of control specific binding and as a percent inhibition of control specific binding obtained in the presence of the compounds of the invention. The IC50 values (concentration causing a half-maximal inhibition of control specific binding) and Hill coefficients (nH) were determined by non-linear regression analysis of the competition curves generated with mean replicate values using Hill equation curve fitting: […]

[2] = target: T1, human adenosine A3 receptor; experiment: Intracellular cAMP levels (inhibition of forskolin-stimulated cAMP production); format: cell-based
Excerpt: Example 31: Intracellular cAMP Levels
The method followed is that published in Yates L, Clark J H, Martin T J, James S, Broadley K J, Kidd E J. Radioligand binding and functional responses of ligands for human recombinant adenosine A3 receptors. Auton Autacoid Pharmacol. 2006 April; 26(2):191-200.
Materials and Cell Culture: Adenosine deaminase was obtained from Roche (Lewes, UK). Forskolin was obtained from Sigma-Aldrich (Poole, UK). The sources of other materials are provided above in Example 1. CHO-K1 cells stably transfected with the human adenosine A3 receptor were grown in Dulbecco's modified Eagles medium with nutrient mixture F12 containing NaHCO3 and Glutamax. Media was supplemented with 10% fetal calf serum, geneticin (G418; 0.67 mg/mL), hygromycin (500 μg/mL) and adenosine deaminase (1 U/mL). Cells were maintained at 37° C. with 5% CO2 in air.
cAMP Measurements: Intracellular cAMP production was measured directly using a non-acetylation cAMP enzyme immunoassay (Amersham Biosciences, Little Chalfont, UK). Cultured CHO cells expressing human adenosine A3 receptors were allowed to plate overnight in 96-well plates in culture medium containing adenosine deaminase. Twenty-four hours later, they were incubated with adenosine analogues or compounds of the invention (0.1 nM-1 μM) for 5 min at 37° C., followed by incubation with forskolin (10 μM) for 10 min. The cells were then lysed with 200 μL of lysis reagent 1 provided with the kit for 10 min to release intracellular cAMP. Aliquots of the supernatants were then transferred to a 96-well microtitre plate coated with donkey anti-rabbit IgG; 100-μL cAMP standards (12.5-3200 fmol/well) were also added to the microtitre plate; 100 μL of rabbit anti-cAMP antibody was added to all wells and incubated at 2-5° C. for 2 h. The antiserum was made up in lysis reagent 2, which sequesters the key component in lysis reagent 1 and ensures that cAMP is free for subsequent analysis. Then 50 μL of cAMP peroxidase conjugate was added to all wells and left to incubate for 60 min at 2-5° C. to allow competition for the antibody between the un-labelled and horse radish peroxidase (HRP)-labelled cAMP. Wells were then washed with buffer and 150 μL of enzyme substrate containing 3,3′,5,5′-tetramethylbenzidine/hydrogen peroxide in 20% (v/v) dimethylformamide was added to each well and left to incubate for 60 min on a Titramax 100 microtitre plate shaker (Heidolph Instruments, Schwabach, Germany) at room temperature for color development. The reaction was stopped by the addition of 100 μL of 1 M sulfuric acid and the optical density (OD) read at 450 nm on a spectrophotometric MRX microplate reader (Dynex Technologies, Chantilly, VA, USA).
Analyses: Each sample/standard was analyzed in duplicate and the resulting OD values averaged. The percent bound (B/Bo) for each standard and sample was calculated using the following relationship: […]
where B is the specific OD for standard/sample and Bo is the specific OD for the zero standard. A standard curve was generated by plotting % B/Bo as a function of the log fmol cAMP standard per well. The fmol per well value for cAMP in each sample was then read from the graph. The results are expressed as a percent of control agonist response: (measured response/control response)*100 in the presence of the compounds of the invention. Concentration-response curves for inhibition of cAMP production were constructed for all compounds of the invention and reference compounds. The EC50 values (concentration producing a half-maximal response) were determined by non-linear regression analysis of the concentration-response curves generated with mean replicate values using Hill equation curve fitting, according to the equation:
where Y=response, A=left asymptote of the curve, D=right asymptote of the curve, C=compound concentration, and C50=EC50, and nH=slope factor. […]

[3] = target: ADORA3 (Homo sapiens (Human), UniProt P0DMS8); experiment: Intracellular calcium release assay (FLIPR); format: cell-based
ADORA3, sequence (P0DMS8 whole entry): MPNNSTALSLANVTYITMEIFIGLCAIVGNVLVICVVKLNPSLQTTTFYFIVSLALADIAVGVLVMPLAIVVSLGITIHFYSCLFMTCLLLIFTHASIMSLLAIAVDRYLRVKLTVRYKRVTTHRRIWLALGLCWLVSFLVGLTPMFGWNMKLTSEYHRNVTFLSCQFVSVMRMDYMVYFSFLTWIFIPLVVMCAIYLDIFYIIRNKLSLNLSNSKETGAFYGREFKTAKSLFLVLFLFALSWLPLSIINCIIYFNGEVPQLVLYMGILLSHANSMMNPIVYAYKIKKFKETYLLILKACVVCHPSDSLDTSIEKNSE
Description: Example 32: Intracellular Calcium Release Assay
Cell Culture: The table below lists the cell lines used that stably express the 4 subtypes of adenosine receptors, along with the growth medium used for each:
For experiments with the ADORA1- and ADORA3-expressing cells, the medium was aspirated and the cells washed twice with 10 mL DPBS. Two mL of trypsin was added and incubated at 37° C. for 1 minute. Then 10 mL of platting media was added to terminate the digestion and 1 mL of the solution was taken out for cell counting. ADORA2A- and ADORA2B-expressing cells were thawed rapidly in a 37° C. water bath. Cell suspensions were transferred to 50 mL conical tubes. Plating media was added to the 10 mL mark and then 1 mL taken out for cell counting. The 50 mL tubes containing the various types of cells were centrifuged at 1000 g. Then the supernatants were aspirated, being careful not to aspirate the cells. The cell pellets were resuspended in 3-5 mL platting media, then 0.5 mL was taken out for cell counting. Then the cell suspension was diluted to 1×10^6 cells/mL (20,000 cells per 20 μL per well) in platting medium, and cells were seeded into 384-well cell plates (Greiner-781946). The 384-well cell plate was placed in a 37° C./5% CO2 incubator (Thermo-371, Thermo Scientific) for 16-20 hours.
Preparation of the intracellular calcium imaging agent (Fluo-4 Direct™ Calcium Assay Kit, Invitrogen-F10471, Thermo Scientific): One mL of FLIPR Assay Buffer was added to 77 mg probenecid to make a 250 mM solution, which was used fresh for each day. One vial of Fluo-4 Direct™ crystals was thawed and 10 mL of FLIPR Assay Buffer was added to the vial. 0.2 mL of probenecid was added to each 10 mL vial of Fluo-Direct™ solution, such that the final assay concentration was 2.5 mM. It was vortexed, left to stand >5 min and protected from light. The dye was prepared fresh each day.
Compound Preparation: Compound plates were prepared as follows. First, the test compound was diluted to prepare a 2 mM solution and then 10-point 3-fold serial dilutions were made using ECHO (ECHO 555, LabCyte), then 900 nL was transferred to the compound plate. For all targets, the final top concentration of the test compound was […]. For agonist reference compounds, 10-point and 3-fold serial dilutions were made, then 900 nL was transferred to the assay plate. Then 30 μL of assay buffer was added to the compound plate and then the plate was centrifuged at 1000 rpm for 1 min.
FLIPR Assay: Cell plates were removed from the incubator, to which were added 20 μL 2×Fluo-4 Direct™ solution, then the plates were reincubated in a 5% CO2, 37° C. incubator for 50 min and at RT for 10 min. To run the protocol on the Fluorescent Imaging Plate Reader (FLIPR) TETRA (MD-FT0249, Molecular Devices, Inc.), 10 μL of assay buffer was transferred from the 384-well plate (Greiner-781280) to the cell plates and then the fluorescence signal was read. Then 10 μL of compound solution was transferred from the compound plate to the cell plates and the fluorescence signal was read. The “Max-Min” was calculated, starting from Read 91 to the maximum allowed. For agonists, activation %=(RLU−LC)/(HC−LC)*100, based on the following: RLU=relative light unit, 91 to maximum allowed signal; HC=average signal of the high concentration of agonist; LC=average signal of DMSO well. The data were fitted using GraphPad Prism 5, using the model “log(agonist) vs. response—Variable slope” to determine the EC50 value. The receptor efficacy of the test compound relative to the agonist NECA was calculated as a percentage (%) of the response to […]. Table 10 includes EC50 values for compounds described herein.

T1 sequence (P0DMS8 whole entry): as above

Compound: CCNc1cc(Cl)nc2c1ncn2[C@H]1[C@H](O)[C@H](O)[C@]2(C(=O)NC)C[C@H]12 [Compound 59, (1S,2R,3S,4R,5S)-4-(5-chloro-7-(ethylamino)-3H-imidazo[4,5-b]pyridin-3-yl)-2,3-dihydroxy-N-methylbicyclo[3.1.0]hexane-1-carboxamide]
- EC50 ([2]; CHO cells expressing human adenosine A3 receptors, forskolin 10 μM): 0.11 nM
- CAMP Efficacy (%) ([2]; maximal response as percentage of the response produced by 100 nM IB-MECA): 106.95%
- EC50 ([3]; CHO-K1 cells, Fluo-4, top concentration 10 μM, read-out: Cell Calcium Assay EC50): 1.2 nM
- Cell Calcium Efficacy (%) ([3]; percentage of the response to NECA): 103.9%

Compound: CCCNc1cc(Cl)nc2c1ncn2[C@H]1[C@H](O)[C@H](O)[C@@H]2C[C@@H]21 [Compound 66]
- Ki [1]: 126 nM

Compound: O[C@@H]1[C@H](O)[C@@H]2C[C@@H]2[C@H]1n1cnc2c(NCC3CCC3)cc(Cl)nc21 [Compound 67, (1R,2R,3S,4R,5S)-4-(5-chloro-7-((cyclobutylmethyl)amino)-3H-imidazo[4,5-b]pyridin-3-yl)bicyclo[3.1.0]hexane-2,3-diol]
- Ki [1]: 94.4 nM

Compound: CCNC(=O)[C@@]12C[C@@H]1[C@@H](n1cnc3c(NCC)cc(Cl)nc31)[C@H](O)[C@@H]2O [Compound 69, (1S,2R,3S,4R,5S)-4-(5-chloro-7-(ethylamino)-3H-imidazo[4,5-b]pyridin-3-yl)-N-ethyl-2,3-dihydroxybicyclo[3.1.0]hexane-1-carboxamide]
- Ki [1]: 1.68 nM

Further molecules by falling Ki [1], results first:

- Ki [1]: 456 nM
Compound: CCNc1c(Cl)c(Cl)nc2c1ncn2[C@H]1[C@H](O)[C@H](O)[C@@H]2C[C@@H]21 [Compound 71, (1R,2R,3S,4R,5S)-4-(5,6-dichloro-7-(ethylamino)-3H-imidazo[4,5-b]pyridin-3-yl)bicyclo[3.1.0]hexane-2,3-diol]

- Ki [1]: 3.49 nM
Compound: CNC(=O)C12C[C@@H]1[C@@H](n1cnc3c(NCC4CCC4)cc(Cl)nc31)[C@H](O)[C@@H]2O (stereo in doubt) [Compound 65, (1S,2R,3S,4R,5S)-4-(5-chloro-7-((cyclobutylmethyl)amino)-3H-imidazo[4,5-b]pyridin-3-yl)-2,3-dihydroxy-N-methylbicyclo[3.1.0]hexane-1-carboxamide]

- Ki [1]: 0.64 nM
Compound: CCCNc1cc(Cl)nc2c1ncn2[C@H]1[C@H](O)[C@H](O)C2(C(=O)NC)C[C@H]12 (stereo in doubt) [Compound 64, (1S,2R,3S,4R,5S)-4-(5-chloro-7-(propylamino) 3H-imidazo[4,5-b]pyridin-3-yl)-2,3-dihydroxy-N-methylbicyclo[3.1.0]hexane-1-carboxamide]

— patent US20230416245A1, “ADENOSINE ANALOGS FOR THE TREATMENT OF DISEASE” (BIOINTERVENE, INC., priority 2020, published 2023)
